The subject of experiment [1] is osteopontin, osteocalcin and bone sialoprotein expression in HPDL cells. Nature of the experiment: Semi-quantitative PCR of mineralized tissue markers in cultured HPDL cells. It counts as cell-based, human. The note with it: 4, 14 and 28 d cultured HPDL cells; H-2 25 μg/mL; TGF-β1 1 ng/mL. The text has this:
Total RNA was extracted using RNAzol™ B from cultured HPDL cells. […] The PCR primers were designed based upon the Homo sapiens mRNA sequences. The primer pairs were as follows: osteopontin, 5′-[…]-3′ (SEQ ID NO: 45) and 5′-[…] TGAA-3′ (SEQ ID NO: 46) (301 bp); osteocalcin, 5′-[…]-3′ (SEQ ID NO: 47) and 5′-[…] GAGGT-3′ (SEQ ID NO: 48) (304 bp); and bone sialo protein, 5′-[…]-3′ (SEQ ID NO: 49) and 5′-[…]-3′ (SEQ ID NO: 50) (448 bp). A primer set amplifying glyceraldehyde-3phosphate dehydrogenase mRNA was used as a control.
The cDNAs generated from HPDL cells […] the DNA Master SYBR Green I kit and protocol and a LightCycler instrument. The relative amount of each mRNA was determined at 50% levels of PCR product, and normalized with use of the relative amount of GAPDH mRNA.

In another experiment the test system is HPDL cells. In words: Mineralization activity of HPDL cells (alizarin red S staining, calcium content). It counts as cell-based, human. As to the method: The HPDL cells were plated in 24-well plates at an initial density of 1×10^5 cells/well. After 24 h of incubation, the medium was replaced with growth medium containing 50 μM ascorbic acid, 10 mM β-glycerophosphate, and 10 nM 1α,25-dihydroxyvitamin D3 (differentiation medium) and 1 μg/ml of samples. The medium was changed every 72 h. The cells were maintained for 30 days and then the medium was discarded.
The compartments of cells were fixed in 100% methanol, stained with alizarin red S for 10 min, then washed with ultrapure water and photographed to examine the biomineralization activity. The staining solution was 1% alizarin red S (sodium alizarin sulfonate) (Sigma) dissolved in ultrapure water and adjusted to pH 6.4 with 0.1N ammonium hydroxide.
For measuring the calcium content, the compartments of cells were dissolved by 0.5N hydrochloric acid. The resulting solution was measured by a Calcium C-test kit and protocol (Wako Pure Chemical Industries Ltd, Osaka, Japan). The absorbance at 570 nm was read on a plate reader.
The HPDL cells were plated in 24-well plates at an initial density of 1×10^5 cells/well. After 24 h of incubation, the medium was replaced with growth medium containing 50 μM ascorbic acid, 10 mM β-glycerophosphate, and 10 nM 1α,25-dihydroxyvitamin D3 (differentiation medium) and 1 μg/ml of samples. The medium was changed every 72 h and the cells were maintained for 30 days. The biomineralization activity was examined by staining with alizarin red S and measuring calcium content.
The HPDL cells were plated in six-well plates at an initial density of 1×10^5 cells per well. […]
For Alizarin Red S staining, the compartments of 28 d cultured cells were fixed in 100% methanol, stained with Alizarin Red S for 10 min, then washed with ultra-pure water and photographed. […] The resulting solution was measured using a Calcium C-test kit and protocol. The absorbance at 570 nm was read with a plate reader. […]

Experiment [2] relates to human periodontal ligament (HPDL) cells. In words: ALP inducing activity of HPDL cells on cell culture system. The format is cell-based. From the text: Human periodontal ligament (HPDL) cells were obtained according to the method of Somerman et al., (1988) from healthy premolars which were extracted from the patients for orthodontic reasons. The cells were precultured for 4-6 passages with a-MEM medium to establish the primary cell line. The cells were maintained in the alpha modification of Eagle's medium (α-MEM; Life Technologies, Grand Island, N.Y., USA) containing 10% fetal bovine serum (FBS; Asahi Technoglass, Chiba, Japan) and 1% antibiotics (100 U/ml of Penicillin-G and 100 μg/ml of Streptomycin sulfate; Gibco BRL, Grand Island, N.Y., USA) at 37° C. in a humidified 5% CO2 atmosphere. The ST2 cells (Riken Cell Bank, Tsukuba, Japan), an osteoblast-like mouse bone marrow stromal cell line, were cultured under the same conditions.
HPDL cells were distributed in 96-well plates at a density of approximately 5×10^5 cells per a well and incubated for 24 h. The growth medium was then changed to contain 10 nM of 1α-25dihydroxy-Vitamin D3 (CALBIOCHEM, La Jolla, Calif.) and 50 μg/ml (final concentration) of fractionated enamel protein samples or synthesized peptides dissolved in ultrapure water. After 96 additional hours of incubation, the cells were washed once with PBS, and ALP activity was determined after a 10 min incubation at 37° C. in 10 mM p-nitrophenylphosphate (substrate) in 100 mM 2-amino-2-methyl-1,3-propanediol-HCl buffer (pH 10.0) containing 5 mM MgCl2. After adding 0.2 M NaOH, which stopped the reaction, the absorbance at 405 nm was read on a plate reader.
HPDL cells of approximately 5×10^5 cells per well were distributed in 96-well plates and incubated for 24 h. The growth medium was then changed to contain 10 nM of 1α-25dihydroxy-Vitamin D3 and 50 μg/ml (final concentration) of purified sheath protein or synthesized peptide. After 96 additional hours of incubation, ALP activity was determined using p-nitrophenylphosphate as a substrate.
The bioactivities of these synthetic peptides were tested their cytodifferentiation activity of HPDL cells and ST2 cells by determination of increasing ALP inducing activity on cell culture system. When these peptides applied in cell culture system, the concentration of their peptides was employed around 1 ng/ml. In the case of TGF-1, the concentration was 10 ng/ml.
Normal human periodontal ligament fibroblasts were maintained in an α-minimal essential medium (α-MEM) containing 10% fetal bovine serum, either with or without 10 nM 1α-25dihydroxy-vitamin D3 and 1% antibiotics (100 U/mL of penicillin G and 100 μg/mL of streptomycin sulfate) at 37° C. in a humidified atmosphere of air containing 5% CO2. Another cell line, ST2 cells, was obtained from an osteoblast-like mouse bone marrow stromal cell line. These cells were cultured in the same conditions as those described above.
The ALP inducing activities of synthetic peptides using the cell culture of HPDL cells and ST2 cells were examined. The HPDL cells were distributed in 96-well plates at a density of approximately 5×10^5 cells per well and incubated for 24 h. The medium was then changed to α-MEM containing 10 nM of 1α-25dihydroxy-vitamin D3 and either synthetic peptides or growth factors dissolved in ultra-pure water. After 96 h of incubation, the cells were washed once with phosphate-buffered saline, and 10 mM ρ-nitrophenylphosphate in 100 mM 2-amino-2-methel-1,3-propanediol-HCl buffer (pH 10.0) containing 5 mM MgCl2 was added. The ALP activity was determined after 10 min incubation at 37° C. and the absorbance at 405 nm was read using a plate reader, after adding 0.2 M NaOH to stop the reaction. […] When the synthetic peptides were applied in the cell culture system, their final concentrations were 25 or 50 μg/mL. A TGF-β1 receptor inhibitor (SB431542, 10 μM) was applied to the HPDL cell culture system to examine their influence relative to the ALP inducing activity of the synthetic peptides.

As for “SDKPPKPELPGVDF (14 aa from 144 to 157 in sequence 11; listed as Homo sapiens) [H-2]”, in experiment [1], the “expressions of osteopontin, osteocalcin and bone sialoprotein” value is recorded as “closely similar to those of TGF-β1”. Also, the “mineralization by HPDL cells (Example 4)” value with HPDL cells (28 d cell culture, H-2 25 μg/mL, TGF-β1 1 ng/mL) is on record as “induced mineralization”. Moreover, the “induction of mineralization of HPDL cells (Example 3)” value with HPDL cells (30 days culture, 1 μg/ml of samples, differentiation medium) is recorded as “enhanced the induction of mineralization”. Further, the “ALP inducing activity of HPDL cells (Example 4)” value in experiment [2] (peptides 50 μg/mL, TGF-β1 1 ng/mL, BMP-2 1 μg/mL, 10 nM 1α-25dihydroxy-vitamin D3, 96 h) is on record as “highest ALP inducing activity”. Besides, in experiment [2] (peptides around 1 ng/ml, TGF-β1 10 ng/ml), the “ALP activity of HPDL cells (human synthetic peptides, Example 3)” value is given as “enhanced dose dependently”.
